Source: patent publication US8859021B2, “Skin appearance through gene manipulation” (Sytheon, priority 2007, dated 2014)
Read-outs that look alike come from different tables or passages of the source.

Test system: EpiDerm tissues
Conditions: retinol 10 μg/ml, Sytenol A 5 μg/ml, 2 days, vs 0.1% DMSO control

CC1=C(/C=C/C(C)=C/C=C/C(C)=C/CO)C(C)(C)CCC1 [Retinol, retinol]
Fold Change, ACTN1 Alpha-actinin-1 (Alpha-actinin cytoskeletal isoform) (Table 8): +3.11 fold
Fold Change, ACTN1 Alpha-actinin-1 (Alpha-actinin cytoskeletal isoform) (Table 9): +3.11 fold
Fold Change, ACTN4 Alpha-actinin-4(F-actin cross-linking protein) (Table 8): +2.99 fold
Fold Change, ACTN4 Alpha-actinin-4(F-actin cross-linking protein) (Table 9): +2.99 fold
Fold Change, AFAP1L2 Actin filament-associated protein 1-like 2: +2.84 fold
Fold Change, C16orf30 Claudin-like protein 24: −2.23 fold
Fold Change, CDH1 Epithelia-cadherin precursor (E-cadherin) (Table 7): +9.39 fold
Fold Change, CDH1 Epithelial-cadherin precursor (E-cadherin) E-Cad/CTF1 (Table 9): +9.39 fold
Fold Change, CDH3 Cadherin-3-precursor (P-cadherin): +3.99 fold
Fold Change, CDH19 Cadherin-19-precursor: −4.11 fold
Fold Change, CDH24 Cadherin-24-precursor: +2.06 fold
Fold Change, CDK5R1 Tau protein kinase II 23 kDa subunit (Cyclin-dependent kinase 5 activator 1 precursor (CDK5 activator 1)): +2.17 fold
Fold Change, CLDN4 Claudin-4 (Clostridium perfringens enterotoxin receptor) (CPE-R): +3.63 fold
Fold Change, CLDN5 Claudin-5 (Transmembrane protein deleted in VCFS): −3.66 fold
Fold Change, CLDN6 Claudin-6 (Skullin 2): +2.59 fold
Fold Change, CLDN7 Claudin-7 (CLDN-7): +25.30 fold
Fold Change, CLDN11 Claudin-11 (Oligodendrocyte-specific protein): −2.86 fold
Fold Change, CLDN12 Claudin-12: +3.73 fold
Fold Change, CLDN16 Claudin-16 (Paracellin-1) (PCLN-1): +7.79 fold
Fold Change, COL1A2 Collagen alpha-2 (I) chain precursor (Alpa-2 type I collagen): +3.31 fold
Fold Change, COL3A1 Collagen alpha-1 (III) chain precursor: −2.36 fold
Fold Change, COL4A6 Collagen alpha-6 (IV) chain precursor: +6.41 fold
Fold Change, COL9A2 Collagen alpha-2 (IX) chain precursor: +5.56 fold
Fold Change, COL9A3 Collagen alpha-3 (IX) chain precursor: +4.05 fold
Fold Change, COL17A1 Collagen alpha-1 (XVII) chain precursor: +3.5 fold
Fold Change, CRABP1 Cellular retinoic acid-binding protein 1: +2.83 fold
Fold Change, CTHRC1 Collagen triple helix repeat-containing protein 1 precursor: −18.94 fold
Fold Change, CTNNAL1 Alpha-catenin-related protein (ACRP) (Table 8): −2.60 fold
Fold Change, CTNNAL1 Alpha-catenin-related protein (ACRP) (Table 9): −2.04 fold
Fold Change, CYP26B1 Cytochrome P450 26B1 (Retinoic acid-metabolizing cytochrome): +1.87 fold
Fold Change, Connective tissue growth factor precursor (Hypertrophic chondrocyte-specific protein 24): −4.61 fold
Fold Change, DHRS9 NADP-dependent retinol dehydrogenase/reductase: +5.48 fold
Fold Change, DSC1 Desmocollin-1-precursor (DG2/DG3): −7.49 fold
Fold Change, DSC2 Desmocollin-2-precursor (Desmocollin-3): +3.71 fold
Fold Change, DSG1 Desmoglein-1-precursor (DG1): −2.30 fold
Fold Change, DSG2 Desmoglein-2-precursor: +13.03 fold
Fold Change, DSG3 Desmoglein-3-precursor: +2.35 fold
Fold Change, DSG4 Desmoglein-4-precursor: No effect
Fold Change, ECM1 Extracellular matrix protein 1 precursor: No effect
Fold Change, ECM2 Extracellular matrix protein 2 precursor: +4.98 fold
Fold Change, ELA3B Elastase-3B precursor (Elastase IIIB): +5.89 fold
Fold Change, F11R Junctional adhesion molecule 1 (JAM-1): +5.77 fold
Fold Change, FLNB Actin-binding-like protein: +3.89 fold
Fold Change, FLRT2 Fibronectin-like-domain-containing leucine-rich transmembrane protein 2: −2.67 fold
Fold Change, FLRT3 Fibronectin-like-domain-containing leucine-rich transmembrane protein 3: +2.77 fold
Fold Change, FNDC7 Fibronectin type III domain containing 7: No effect
Fold Change, Fibroblast growth factor 9 (HBGF-9): −12.36 fold
Fold Change, Fibroblast growth factor 23 precursor (FGF-23) (Tumor-derived hypophosphatemia-inducing factor): −9.78 fold
Fold Change, Fibroblast growth factor receptor 2 precursor (FGFR-2): +6.50 fold
Fold Change, Fibroblast growth factor-binding protein 1 precursor (FGF-BP1): +3.51 fold
Fold Change, GSN Gelsolin precursor (Actin-depolymerizing factor) (ADF): +3.47 fold
Fold Change, HAS2 Hyaluronan synthase 2: −3.48 fold
Fold Change, HAS3 Hyaluronan synthase 3: +10.88 fold
Fold Change, HS3ST1 Heparan sulfate 3-O-sulfotransferase 1 (Table 6): +8.65 fold
Fold Change, HS3ST1 Heparan sulfate glucosamine 3-O-sulfotransferase 1 precursor (Heparan sulfate 3-O-sulfotransferase 1) (Table 3): +8.65 fold
Fold Change, HS6ST1 Heparan sulfate 6-O-sulfotransferase 1: +2.26 fold
Fold Change, HYAL1 Hyaluronidase-1-precursor: +2.16 fold
Fold Change, Heparin-binding EGF-like growth factor precursor (HB-EGF): +3.89 fold
Fold Change, IGSF1 Immunoglobulin superfamily, member 1 isoform 1: +3.11 fold
Fold Change, IGSF3 Immunoglobulin superfamily, member 3 isoform 2: +5.81 fold
Fold Change, ITG5 Integrin beta-5 precursor (Table 7): −2.42 fold
Fold Change, ITGA6 Integrin alpha-6 precursor: No effect
Fold Change, ITGA7 Integrin alpha-7 precursor: −5.53 fold
Fold Change, ITGB2 Integrin beta-2-precursor: −3.54 fold
Fold Change, ITGB4 Integrin beta-4-precursor (Table 3): +3.48 fold
Fold Change, ITGB4 Integrin beta-4 precursor (Table 7): +3.48 fold
Fold Change, ITGB5 Integrin beta-5 precursor (Table 3): −2.42 fold
Fold Change, ITGB6 Integrin beta-6-precursor (Table 3): +7.49 fold
Fold Change, ITGB6 Integrin beta-6-precursor (Table 7): +7.49 fold
Fold Change, ITGB8 Integrin beta-8 precursor (Table 3): No effect
Fold Change, ITGB8 Integrin beta-8 precursor (Table 7): No effect
Fold Change, ITGBL1 Integrin beta-like 1: −4.38 fold
Fold Change, Insulin growth factor-like family member 3 precursor (IGBP-3): −7.11 fold
Fold Change, Insulin growth factor-like family member 4 precursor (IGBP-4): +5.97 fold
Fold Change, Insulin-like growth factor-binding protein 6 precursor (IGBP-6): +5.89 fold
Fold Change, JUP Catenin gamma (Junction plakoglobin) (Table 8): +2.43 fold
Fold Change, JUP Catenin gamma (Table 9): +2.43 fold
Fold Change, KIF1C Kinesin-like protein KIF1C: +2.47 fold
Fold Change, KIF2A Kinesin-like protein KIF2A: −3.62 fold
Fold Change, KIF4A Chromosome-associated kinesin KIF4A: +2.08 fold
Fold Change, KIF13A Kinsein-like protein KIF13A: −2.27 fold
Fold Change, KIF13B Kinsein-like protein KIF13B: +2.91 fold
Fold Change, KIF17 Kinesin-like protein KIF17: +2.18 fold
Fold Change, KIF26A Kinesin family member 26A: −2.93 fold
Fold Change, KIFC2 Kinesin-like protein KIFC2: −2.45 fold
Fold Change, KRT2 Keratin-2; Cytokeratin-2e (CK 2e): −8.37 fold
Fold Change, KRT5 Keratin-5, Cytokeratin-5 (CK-5): +2.39 fold
Fold Change, KRT7 Keratin-7; Cytokeratin-7 (CK-7): +8.75 fold
Fold Change, KRT13 Keratin-13; Cytokeratin-13 (CK-13): +14.17 fold
Fold Change, KRT15 Keratin-15; Cytokeratin-15 (CK-15): +5.48 fold
Fold Change, KRT19 Keratin-19; Cytokeratin-19 (CK-19): +11.27 fold
Fold Change, LAMA3 Laminin subunit alpha-3 precursor (Epiligrin 170 kDa subunit): +4.70 fold
Fold Change, LAMC2 Laminin subunit gamma-2 precursor (Laminin B2t chain): +2.68 fold
Fold Change, LRAT Lecithin retinol acyltransferase: +12.3 fold
Fold Change, LRRC49 Tubulin polyglutamylase complex subunit 4 (PGs4): −2.83 fold
Fold Change, MC1R, TUBB3 Tubulin beta-3-chain (Tubulin beta-III): +2.99 fold
Fold Change, MMP9 Matrix metalloprotease-9-precursor: +8.35 fold
Fold Change, MMP15 Matrix metalloprotease-15 precursor: +3.67 fold
Fold Change, MMP21 Matrix metalloprotease-21 precursor: No effect
Fold Change, MMP23A, MMP23B Matrix metalloprotease-23: −5.78 fold
Fold Change, MMP26 Matrix metalloprotease-26-precursor (MMP-26): +4.31 fold
Fold Change, MMP28 Matrix metalloprotease-28-precursor: +3.88 fold
Fold Change, MYH14 Myosin-14: +3.38 fold
Fold Change, MYL2 Myosin regulatory light chain 2: No effect
Fold Change, MYO1F Myosin-lf (Myosin-le): +6.29 fold
Fold Change, MYO6 Myosin-VI: No effect
Fold Change, Mast/stem cell growth factor receptor precursor (SCFR) (Proto-oncogene tyrosine-protein kinase kit (c-kit)): −3.36 fold
Fold Change, NDST4 N-heparan sulfate sulfotransferase 4: No effect
Fold Change, NEIL2 DNA glycosylase/AP lyase Neil2: +12.79 fold
Fold Change, NF-kappa-B-activating protein: −2.13 fold
Fold Change, NGRN, TTLL13 Tubulin tyrosine ligase-like family, member 13: +11.61 fold
Fold Change, NID2 Nidogen-2-precursor: −17.36 fold
Fold Change, NT5C1B, RDH14 Retinol dehydrogenase 14 (Alcohol dehydrogenase PAN20): −5.33 fold
Fold Change, Nuclear factor Kappa B p105 unit (NF-kappa-B) (DNA-binding factor KBF 1): −3.62 fold
Fold Change, PARP2 Poly (ADP-ribose) polymerase 2: +2.08 fold
Fold Change, PARP9 Poly (ADP-ribose) polymerase 9: +5.92 fold
Fold Change, PARP12 Poly (ADP-ribose) polymerase 12: +4.69 fold
Fold Change, PARP15 Poly (ADP-ribose) polymerase 15: +6.37 fold
Fold Change, PCDH11X Procadherin-11: +3.18 fold
Fold Change, PCDH18 Procadherin-18-precursor: −2.49 fold
Fold Change, PCDH19 Procadherin-19-precursor: −3.41 fold
Fold Change, PCDHB1 Procadherin-beta-1-precursor: No effect
Fold Change, PCDHB2 Procadherin-beta-2-precursor: No effect
Fold Change, PCDHB3 Procadherin-beta-3-precursor: −6.57 fold
Fold Change, PCDHB4 Procadherin-beta-4-precursor: −2.62 fold
Fold Change, PFN4 Profilin-4 (Profilin IV): +4.77 fold
Fold Change, PI3 Elastase-specific inhibitor: +2.45 fold
Fold Change, Protein Kinase B (RAC-alpha serine/threonine-protein kinase) (RAC-PK-alpha): −5.09 fold
Fold Change, RARB Retinoic acid receptor beta-1: +5.63 fold
Fold Change, RARG Retinoic acid receptor gama-1: +1.87 fold
Fold Change, RARRES1 Retinoic acid receptor responder protein 1: +13.25 fold
Fold Change, RBP1 Cellular Retinol-binding protein-I: +2.6 fold
Fold Change, RBP2 Cellular Retinol-binding protein-II: No effect
Fold Change, RBP7 Cellular retinoic acid-binding protein 4: No effect
Fold Change, RETSAT All-trans-retinol 13,14-reductase precursor: −2.97 fold
Fold Change, SELE E-selection precursor (Endothelial leukocyte adhesion molecule 1) (ELAM-1): −2.11 fold
Fold Change, SERPINB1 Leukocyte elastase inhibitor: +3.80 fold
Fold Change, SIR2-like protein1/NAD-dependent deacetylase sirtuin-1 (hSIRT1): −1.89 fold
Fold Change, SIR2-like protein2/NAD-dependent deacetylase sirtuin-2: +1.52 fold
Fold Change, SIR2-like protein7/NAD-dependent deacetylase sirtuin-7: +1.58 fold
Fold Change, SRRM1 Serine/arginine repetitive matrix protein 1 (SR-related nuclear matrix protein 160 kDa) (SRm160): +3.57 fold
Fold Change, TBCEL Tubulin-specific chaperone cofactor E-like protein (EL): +2.20 fold
Fold Change, TTBK1 Tau-tubulin kinase 1: −7.99 fold
Fold Change, TTLL1 Tubulin polyglutamylase complex subunit 3 (PGs3): +1.92 fold
Fold Change, TUBB2B Tubulin beta-2B chain: −2.56 fold
Laminins gene regulation (in words): up-regulate
Fold Change, ITGA7 Integrin alpha-7 precursor (listed as retinol): significant down-regulatory effect
Fold Change, ITGB5 Integrin beta-5 precursor (Table 3) (listed as retinol): significant down-regulatory effect
Fold Change, ITGBL1 Integrin beta-like 1 (listed as retinol): significant down-regulatory effect
Fold Change, NID2 Nidogen-2-precursor (listed as retinol): significant down-regulation
